Data from patent US5360925A, “Dual inhibitors of no synthase and cyclooxygenase, process for their preparation and therapeutical compositions containing them” (priority 1992, dated 1994).

Columns and labels:
[1] = system: J774 A1 monocyte/macrophage cell line; test: In vitro effect on nitrite production induced by LPS+INFγ on J774 A1 monocyte/macrophage cell line; assay type: cell-based, murine
Source text: 5-In vitro effect on nitrite production induced by LPS+INFγ on J774 A1 monocyte/macrophage cell line:
Macrophage type cells like J774 A1 cell line are interesting to use since they are important cells in inflammation and express large amount of NO (due to the induction of NO synthase) and cyclooxygenase products. They are activated with lipopolysaccharide (LPS) in presence of interferon γ (INFγ). This assay was used to compare the effects of compounds of the invention with the association of their separated parent compounds.
Murine monocyte/macrophage cells were grown in Dubecco's modified Eagle's medium at 37° C. The cells were plated in 24 well culture plate (NUNC) and were used for experiments at about 2×10^5 cells/plate. The cells were activated with LPS (1 μg/ml) from E. Coli (SO55:B5) and murine recombinant IFNγ (50 U/ml) and then incubated in the presence or absence of the compounds. After 48 h nitrite (NO2 -) levels, which correlate with the activation of NO synthase, were assessed in the culture media by the colorimetric method according to Green et al (L. Green, D. Wagner, J. Glogowski, P. Skipper, J. Wishwok and S. Tannenbaum, Analysis of nitrate, nitrite and [15N] nitrate in biological fluids. Analytical Biochemistry 126, 131-138, 1982).

[2] = system: vascular reactivity to methoxamine; test: In vivo effect on endotoxin treated pithed rat; conditions: endotoxin 300 μg/kg/h, control 79 ± 9, EDTX 278 ± 34
Experimental: 10-In vivo effect on endotoxin treated pithed rat:
As previously reported, the association of an inhibitor of NO synthase and an inhibitor of cyclooxygenase has a synergistic effect to restore the blood pressure and vascular reactivity in an endotoxinic or septic animal.
Male Sprague Dawley rats (body weight 280-320 g) were pithed. One hour after pithing, animals were given endotoxin (EDTX, Escherichia Coli, lipopolysaccharide, O III, B4 =300 μg/kg/h) for 60 minutes. […]

[3] = system: neuronal death after focal cerebral ischemia; test: In vivo effect on neuronal death after focal cerebral ischemia in mice; conditions: 3 mg/kg ip, 5 hours after middle cerebral artery occlusion; mean of six animals
Experimental: 9-In vivo effect on neuronal death after focal cerebral ischemia in mice:
Systemic intraperitoneal (ip) administration of the compounds was carried out 5 hours after cortical infarction induced by the occlusion of the middle cerebral artery in male Swiss mice (20-22 g), according to Duverger et al.--Pharmacology of cerebral ischemia in Krieglstein and Oberpichler, Wissenschaftliche Verlagsgesellschaft, Stuttgart, 1990, 409-413. Four days later, the mice were decapitated and their brains removed and frozen to be then sectioned in coronal slices of […] thickness. Area infarction was measured by image analysis. Reduction of infarcted volume was measured and compared with non treated animal. The percentage indicated the mean reduction of infarct from six animals per group--MK 801, a NMDA antagonist was used as a control substance.

constitutive NO synthase = target: T1, constitutive NO synthase (Rattus norvegicus, UniProt Q62600); test: In vitro effect on constitutive NO synthase in the isolated rat aorta; assay type: cell-based; conditions: isolated rat aorta with endothelium; reversal of carbachol relaxation; PE 1 μM; read-out: Test on constitutive NO synthase IC50
T1 construct: Preparations of isolated rat aorta with endothelium; from tissue; host or cells: isolated thoracic aorta rings with endothelium, Sprague Dawley rat
T1 sequence (Q62600 2-1202 limits assumed): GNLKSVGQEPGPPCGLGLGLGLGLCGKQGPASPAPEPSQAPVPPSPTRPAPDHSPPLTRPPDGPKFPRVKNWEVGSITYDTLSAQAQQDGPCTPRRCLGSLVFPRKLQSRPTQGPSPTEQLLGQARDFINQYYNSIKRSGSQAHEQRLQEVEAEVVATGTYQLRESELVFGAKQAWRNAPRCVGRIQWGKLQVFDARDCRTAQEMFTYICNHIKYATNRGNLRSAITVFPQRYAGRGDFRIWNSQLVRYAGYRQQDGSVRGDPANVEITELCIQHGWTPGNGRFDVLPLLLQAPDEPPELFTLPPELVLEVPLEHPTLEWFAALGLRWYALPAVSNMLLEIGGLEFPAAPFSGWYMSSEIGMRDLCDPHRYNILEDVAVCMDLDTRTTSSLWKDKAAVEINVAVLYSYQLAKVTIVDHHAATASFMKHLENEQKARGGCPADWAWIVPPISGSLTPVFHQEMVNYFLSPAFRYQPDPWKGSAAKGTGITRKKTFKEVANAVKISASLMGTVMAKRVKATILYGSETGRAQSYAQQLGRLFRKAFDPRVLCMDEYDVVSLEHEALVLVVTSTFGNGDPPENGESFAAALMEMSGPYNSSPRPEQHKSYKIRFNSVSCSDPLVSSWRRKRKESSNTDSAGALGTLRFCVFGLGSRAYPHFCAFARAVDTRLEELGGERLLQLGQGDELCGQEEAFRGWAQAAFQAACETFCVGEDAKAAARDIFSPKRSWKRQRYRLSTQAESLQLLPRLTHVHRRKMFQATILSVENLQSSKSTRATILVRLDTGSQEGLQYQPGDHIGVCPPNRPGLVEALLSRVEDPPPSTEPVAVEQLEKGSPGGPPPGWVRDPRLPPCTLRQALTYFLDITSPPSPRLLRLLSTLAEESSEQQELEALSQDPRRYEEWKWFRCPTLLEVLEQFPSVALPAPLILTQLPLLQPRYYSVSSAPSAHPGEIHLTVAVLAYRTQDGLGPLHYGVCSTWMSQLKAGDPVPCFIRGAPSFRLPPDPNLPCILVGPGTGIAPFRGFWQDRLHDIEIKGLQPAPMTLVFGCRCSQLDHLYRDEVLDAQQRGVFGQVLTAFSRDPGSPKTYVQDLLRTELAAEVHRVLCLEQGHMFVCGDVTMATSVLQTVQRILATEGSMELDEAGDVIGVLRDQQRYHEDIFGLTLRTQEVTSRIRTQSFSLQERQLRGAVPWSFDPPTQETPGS
Experimental: 1-In vitro effect on constitutive NO synthase in the isolated rat aorta;
Preparations of isolated rat aorta with endothelium were prepared as previously described (M. Auguet, S. Delaflotte, P. E. Chabrier and P. Braquet--Comparative effects of endothelium and phorbol 12-13 dibutyrate in rat aorta, Life Sciences, 1989, 45, 2051-2059).
Male Sprague Dawley rats (270-360 g, Charles River, Paris) were sacrificed by cervical dislocation and the thoracic aorta removed and cleaned of the surrounding tissue. Rings 2 mm wide were suspended in organ baths containing 10 ml of physiological solution (for composition, see below) under a tension of 2 g at 37° C. and gassed with O2 /CO2 (95%/5%). Contractile responses were measured, using force displacement transducers (Slatham UC2) coupled to a Gould 8000 S polygraph. An equilibration period of one hour was allowed before experimentation. Normal physiological solution was composed of (mM): NaCl, 118; KCl, 4.7; CaCl2, 2.5; KH2 PO4, 1.2; MgSO4, 0.6; NaHCO3, 25; glucose, 11. After equilibration in normal medium, the preparation was subjected to a near maximal dose (about 95%) of phenylephrine (PE, 1 μM). When the contraction was stable, carbachol (10 μM) was tested in order to evaluate the presence or absence of endothelium. […]

inducible NO synthase = target: T2, inducible NO synthase (Rattus norvegicus, UniProt Q06518); test: In vitro effect on inducible NO synthase in the isolated rat aorta from endotoxin-shocked animal; assay type: cell-based; conditions: aorta from endotoxin-treated rats, endothelium disrupted; PE 1 μM; read-out: Test on inducible NO synthase IC50
T2 construct: the compounds were tested on isolated rat aorta from shocked animal; from tissue; host or cells: thoracic aorta rings, endothelium removed, from endotoxin-treated Sprague Dawley rats

cyclooxygenase [4] = target: T3, cyclooxygenase (Mus musculus, UniProt Q05769); test: In vitro effect on prostaglandin (6 keto PGF1α) production induced by LPS+IFNγ on J774A1 monocyte/macrophage cell line; assay type: cell-based, murine; conditions: for effect on release of 6 keto PGF1α: LPS+IFNγ, J774A1 culture media
T3 construct: main cyclooxygenase products produced by J774A1 cell line; endogenous in cells
T3 sequence (Q05769 18-604): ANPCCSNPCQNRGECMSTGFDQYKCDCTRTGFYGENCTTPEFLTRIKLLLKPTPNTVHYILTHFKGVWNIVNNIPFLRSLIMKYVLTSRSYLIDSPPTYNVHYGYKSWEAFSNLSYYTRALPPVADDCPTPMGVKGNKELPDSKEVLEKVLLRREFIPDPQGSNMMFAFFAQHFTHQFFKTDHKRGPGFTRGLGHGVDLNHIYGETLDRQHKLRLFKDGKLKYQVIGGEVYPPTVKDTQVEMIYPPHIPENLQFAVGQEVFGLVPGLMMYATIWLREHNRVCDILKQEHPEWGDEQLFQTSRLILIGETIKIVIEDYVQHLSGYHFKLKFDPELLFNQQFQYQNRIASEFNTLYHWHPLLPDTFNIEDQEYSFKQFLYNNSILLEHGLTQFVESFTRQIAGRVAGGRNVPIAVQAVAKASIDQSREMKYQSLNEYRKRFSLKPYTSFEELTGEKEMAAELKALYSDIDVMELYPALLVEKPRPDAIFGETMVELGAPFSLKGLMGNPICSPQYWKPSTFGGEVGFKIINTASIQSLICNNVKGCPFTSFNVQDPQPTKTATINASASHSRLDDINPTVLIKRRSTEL
Experimental: 6-In vitro effect on prostaglandin production induced by LPS+IFNγ on J774A1 monocyte/macrophage cell line:
Levels of one of the main cyclooxygenase products produced by J774A1 cell line (i.e.: 6 keto PGF1α) the stable metabolite of PGI2 were assessed in the culture media by a specific radioimmunoassay (NEN, Kit NEK 025).

cyclooxygenase [5] = target: T4, cyclooxygenase (Oryctolagus cuniculus, UniProt O97554); test: In vitro effect on arachidonic acid induced aggregation of washed rabbit platelets; assay type: cell-based; conditions: arachidonic acid 0.5 mM, read-out: IC50 (arachidonic acid induced platelet aggregation)
T4 construct: arachidonic acid induced aggregation of washed rabbit platelets; endogenous in cells; host or cells: washed platelets of male New Zealand rabbits
T4 sequence (O97554 31-606): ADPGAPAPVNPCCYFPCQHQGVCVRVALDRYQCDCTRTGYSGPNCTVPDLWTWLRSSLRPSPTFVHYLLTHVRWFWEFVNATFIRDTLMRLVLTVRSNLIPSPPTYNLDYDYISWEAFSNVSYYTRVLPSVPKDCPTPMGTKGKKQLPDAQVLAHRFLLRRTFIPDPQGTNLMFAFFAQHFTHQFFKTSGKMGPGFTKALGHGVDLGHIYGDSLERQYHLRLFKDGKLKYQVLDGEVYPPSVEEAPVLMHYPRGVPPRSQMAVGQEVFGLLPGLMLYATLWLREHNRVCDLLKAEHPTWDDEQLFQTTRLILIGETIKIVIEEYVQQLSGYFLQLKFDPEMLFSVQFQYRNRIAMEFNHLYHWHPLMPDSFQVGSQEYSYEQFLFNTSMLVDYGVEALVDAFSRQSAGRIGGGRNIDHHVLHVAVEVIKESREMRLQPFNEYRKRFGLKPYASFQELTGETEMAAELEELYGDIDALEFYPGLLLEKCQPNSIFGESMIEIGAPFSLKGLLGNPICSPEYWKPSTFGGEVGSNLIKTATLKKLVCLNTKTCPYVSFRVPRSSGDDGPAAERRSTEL
Experimental: This protocol was used to assay the effect of the compounds on the cyclooxygenase. […] Blood was taken from the auricular artery of male New Zealand rabbit (2.5 kg mean body weight) on ACD (citric acid/sodium citrate/dextrose) as anticoagulant. The washed platelets were prepared and then transferred in the cuvet of the aggregometer (Chronolog aggregometer Coultronics).

In the case of CNC(=N)NCCC[C@H](N)C(=O)O.O=C(O)c1ccccc1O [Example 2], the “% OF INHIBITION of nitrite production” value ([1]; 10^-4 M, LPS+INF, J774) is reported as 75.5%, the “% OF INHIBITION of nitrite production” value ([1]; 10^-5 M, LPS+INF, J774) is reported as 61% and the “% OF INHIBITION of nitrite production” value ([1]; 10^-6 M, LPS+INF, J774) is reported as 53%. The “vascular reactivity to methoxamine DE50” value ([2]; dose 30 mg/kg/h) was 98 ± 35 µg/kg and the Reduction of infarct [3] was -55%.

CNC(=N)NCCCC(N)C(=O)O.Cc1cccc(Nc2ccccc2C(=O)O)c1C [Example 12] showed an IC50 (constitutive NO synthase) of 10 µM.

In the case of CC1=C(CC(=O)O)c2cc(F)ccc2/C1=C\c1ccc([S+](C)[O-])cc1.N=C(NCCC[C@H](N)C(=O)O)N[N+](=O)[O-] (stereo not shown) [Example 13], the “% OF INHIBITION of nitrite production” value ([1]; 10^-4 M, LPS+INF, J774) is reported as 71%, the “% OF INHIBITION of nitrite production” value ([1]; 10^-5 M, LPS+INF, J774) is reported as 63% and the “% OF INHIBITION of nitrite production” value ([1]; 10^-6 M, LPS+INF, J774) is reported as 56%.

COC(=O)[C@H](CCCNC(N)=N[N+](=O)[O-])NC(=O)c1ccccc1OC(C)=O [Example 16] showed an IC50 (constitutive NO synthase) of 9 µM and an IC50 (inducible NO synthase) of 4 µM.

Compound COC(=O)C(CCCNC(=N)N[N+](=O)[O-])NC(=O)CC1=C(C)C(=Cc2ccc([S+](C)[O-])cc2)c2ccc(F)cc21 (stereo not shown) [Example 17] has an inhibition at 100 µM ([1]; Mus musculus, J774.A1, 10^-4 M, LPS+INF, J774) of 73%, an inhibition at 10 µM ([1]; Mus musculus, J774.A1, 10^-5 M, LPS+INF, J774) of 57% and an inhibition at 1 µM ([1]; Mus musculus, J774.A1, 10^-6 M, LPS+INF, J774) of 49%. For the same compound, the Reduction of infarct [3] was -69%, the inhibition at 100 µM (cyclooxygenase [4]; J774.A1, 10^-4 M, LPS+INF, J774A1, read-out: % OF INHIBITION of 6-keto PG F1 production) was 92% and the inhibition at 10 µM (cyclooxygenase [4]; J774.A1, 10^-5 M, LPS+INF, J774A1, read-out: % OF INHIBITION of 6-keto PG F1 production) was 83%. It also gave an inhibition at 1 µM (cyclooxygenase [4]; J774.A1, 10^-6 M, LPS+INF, J774A1, read-out: % OF INHIBITION of 6-keto PG F1 production) of 74%.

COC(=O)[C@@H](N)CCCNC(N)=N[N+](=O)[O-] [L-NAME, N-ω-nitro-L-Arginine methyl ester, reference compound] was tested, and the “effect on release of 6 keto PGF1α” value (cyclooxygenase [4]) was “not affected”.

For NC(=N[N+](=O)[O-])NCCC[C@H](N)C(=O)O [L-NO, N-ω-nitro-L-Arginine, reference compound], the IC50 ([1]; Mus musculus, J774.A1, activated cells, LPS 1 μg/ml + IFNγ 50 U/ml, 48 h) was 15 µM and the “effect on release of 6 keto PGF1α” value (cyclooxygenase [4]) was “not affected”.

Work on C[C@]12N[C@H](Cc3ccccc31)c1ccccc12 [MK 801, reference compound] yielded a Reduction of infarct [3] of -51%.

In the case of CC(=O)Oc1ccccc1C(=O)O [aspirin, acetylsalicylic acid, reference compound], the “vascular reactivity to methoxamine DE50” value ([2]; dose 150 mg/kg/h) is reported as 136 ± 29 µg/kg, the IC50 (cyclooxygenase [5]) is reported as 200 µM and the “effect on release of 6 keto PGF1α” value (cyclooxygenase [4]) is reported as “abolished in a dose dependent manner”.
